Reference: patent US20260356804A1, “SODIUM CHANNEL BLOCKING COMPOUNDS, DERIVATIVES THEREOF, AND METHODS OF THEIR USE” (LATIGO BIOTHERAPEUTICS, INC., priority 2022, published 2026)
Where two headings read alike, the source gives them in different places.

How the values were obtained:
human Nav1.8/β1 = biological target: T1, human Nav1.8/β1 (Homo sapiens, UniProt Q9Y5Y9); assay: Compound Profiling Human NaV1.8/β1 Cell Line—Sophion QPatch II Assay (automated patch clamp, stably transfected HEK293 cells); type: cell-based
T1 construct: host or cells: HEK293
T1 sequence (Q9Y5Y9 whole entry): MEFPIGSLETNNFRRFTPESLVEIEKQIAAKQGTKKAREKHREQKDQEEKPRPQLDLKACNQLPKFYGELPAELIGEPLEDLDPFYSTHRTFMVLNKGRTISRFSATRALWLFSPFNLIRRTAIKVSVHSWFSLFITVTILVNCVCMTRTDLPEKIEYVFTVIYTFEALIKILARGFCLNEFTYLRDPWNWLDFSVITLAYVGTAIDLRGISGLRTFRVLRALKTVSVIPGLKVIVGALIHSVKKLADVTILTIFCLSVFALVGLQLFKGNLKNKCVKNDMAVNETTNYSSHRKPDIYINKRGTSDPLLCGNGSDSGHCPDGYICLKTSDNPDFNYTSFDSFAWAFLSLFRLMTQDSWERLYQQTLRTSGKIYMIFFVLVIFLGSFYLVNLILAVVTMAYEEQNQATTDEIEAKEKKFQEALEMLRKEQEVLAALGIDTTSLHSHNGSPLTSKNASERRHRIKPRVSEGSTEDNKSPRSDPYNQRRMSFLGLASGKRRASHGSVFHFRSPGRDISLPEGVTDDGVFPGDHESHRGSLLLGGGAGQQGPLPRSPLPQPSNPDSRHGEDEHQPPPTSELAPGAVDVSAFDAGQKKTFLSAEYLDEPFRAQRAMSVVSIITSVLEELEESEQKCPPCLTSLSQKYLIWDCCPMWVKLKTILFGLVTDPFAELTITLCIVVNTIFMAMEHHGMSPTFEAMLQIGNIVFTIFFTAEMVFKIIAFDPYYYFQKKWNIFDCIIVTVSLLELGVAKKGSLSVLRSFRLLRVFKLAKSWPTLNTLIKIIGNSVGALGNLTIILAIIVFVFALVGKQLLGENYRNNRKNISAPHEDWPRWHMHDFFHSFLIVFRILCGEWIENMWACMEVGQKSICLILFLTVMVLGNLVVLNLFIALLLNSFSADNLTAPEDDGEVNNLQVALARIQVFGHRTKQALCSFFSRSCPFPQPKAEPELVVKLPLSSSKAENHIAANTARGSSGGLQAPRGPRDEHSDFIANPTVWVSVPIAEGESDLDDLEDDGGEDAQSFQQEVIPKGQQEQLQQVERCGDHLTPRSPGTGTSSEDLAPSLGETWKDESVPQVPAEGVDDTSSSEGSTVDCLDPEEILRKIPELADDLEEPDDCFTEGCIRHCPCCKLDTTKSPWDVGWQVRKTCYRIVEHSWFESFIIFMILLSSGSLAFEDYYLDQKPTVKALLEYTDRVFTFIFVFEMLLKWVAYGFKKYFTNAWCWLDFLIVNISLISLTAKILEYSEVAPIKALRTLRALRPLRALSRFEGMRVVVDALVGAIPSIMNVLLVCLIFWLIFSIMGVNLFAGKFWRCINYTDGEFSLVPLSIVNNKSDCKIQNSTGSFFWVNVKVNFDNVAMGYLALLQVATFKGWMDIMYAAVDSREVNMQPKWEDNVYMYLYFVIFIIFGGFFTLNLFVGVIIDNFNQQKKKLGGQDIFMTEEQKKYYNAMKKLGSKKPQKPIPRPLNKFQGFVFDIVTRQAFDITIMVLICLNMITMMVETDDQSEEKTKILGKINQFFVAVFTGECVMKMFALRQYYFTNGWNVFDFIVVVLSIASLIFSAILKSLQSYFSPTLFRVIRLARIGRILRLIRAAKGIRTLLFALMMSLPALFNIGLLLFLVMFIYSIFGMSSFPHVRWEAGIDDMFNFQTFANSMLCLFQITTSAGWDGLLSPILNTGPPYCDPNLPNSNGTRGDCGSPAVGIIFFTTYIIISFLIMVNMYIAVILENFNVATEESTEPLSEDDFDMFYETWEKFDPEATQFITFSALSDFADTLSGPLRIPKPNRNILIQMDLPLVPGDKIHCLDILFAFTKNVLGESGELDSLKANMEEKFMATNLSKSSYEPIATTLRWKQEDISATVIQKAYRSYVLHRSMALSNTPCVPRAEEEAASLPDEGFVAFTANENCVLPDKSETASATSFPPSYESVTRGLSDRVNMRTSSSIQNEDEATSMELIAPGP
T1 sequence (Q07699 19-218 partner): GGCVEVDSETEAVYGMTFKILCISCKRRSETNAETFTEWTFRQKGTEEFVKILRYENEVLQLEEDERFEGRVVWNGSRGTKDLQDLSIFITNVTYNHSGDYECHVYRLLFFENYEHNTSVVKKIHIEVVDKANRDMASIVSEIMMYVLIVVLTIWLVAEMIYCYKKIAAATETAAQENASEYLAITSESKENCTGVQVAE
Description: Compounds were tested on recombinant human Nav1.8/β1 stably transfected HEK293 (Eurofins, CYL3025, St. Charles, MO) cells using the QPatch II system (Sophion Bioscience A/S, Ballerup—Denmark), an automated patch clamp device. Cells were cultured at 37° C./5% CO2 in DMEM/F-12 supplemented with 10% fetal bovine serum, 1× Non-Essential Amino Acids, and selection antibiotics (0.625 μg/mL Puromycin, 400 μg/mL Geneticin, and 100 μg/mL Hygromycin). One or two days prior to recording, cells were moved to a lower temperature 30° C./5% CO2 incubator to increase surface expression of the channels. On the day of the recordings, cells in culture dishes were washed twice with Ca^2+—Mg^2+ free DPBS and treated with Detachin (Genlantis, San Diego) for 3 minutes and then resuspended in Serum Free Medium (EX-CELL® ACF CHO Medium for Cell Culture (Sigma-Aldrich) supplemented with 0.04 mg/mL soybean trypsin Inhibitor and 25 mM HEPES (all components supplied by Sigma-Aldrich, St. Louis, MO) and allowed to recover for a minimum of 20 minutes in the onboard QStirrer. All experiments were performed at ambient temperature. Intracellular solution contained (mM): CsCl, 50; CsF, 90; MgCl2, 2; EGTA, 5; HEPES, 10; pH adjusted to 7.2 with CsOH. Extracellular solution contained (mM): NaCl, 137; KCl, 4; CaCl2), 3.8; MgCl2, 1; HEPES, 10; Glucose, 10; pH adjusted to 7.4 with NaOH. [LEFT OUT].
Compounds were tested in an interleaved manner across two cohorts of wells to develop an aggregate 8-point concentration response curve. Final concentrations include 0.1% DMSO and 0.03% pluronic Acid. In general, the concentration range spans a range from 0.01-300 nM. Compounds were diluted 1:10 with extracellular solution within their respective cohort. DMSO (0.1% by volume) served as a vehicle control to ascertain assay performance.
(§1) Whole cell patch clamp recordings were conducted according to Sophion standard procedure for QPatch II®. Cells were held at a holding potential of −120 mV. A depolarizing step to 10 mV for 30 ms was applied to elicit inward Na^+ currents. Inter-sweep interval was 15 sec. Following establishment of the whole-cell configuration in extracellular solution, cells were washed twice in extracellular solution containing 0.1% DMSO and 0.03% pluronic acid to stabilize the baseline current. Compounds were then applied by the QPatch II system into each well in an ascending manner within cohort and the current was recorded for five minutes for each concentration. Percent of current remaining was determined by taking the average of the last 5 sweeps within each concentration and normalizing to the latest pre-compound saline period. The potency (IC50) values of the compounds were only assessed against resting state block. Wells whose initial sodium current magnitude were below 2 nA or whole cell resistance fell below 100 MΩ were excluded from analysis.
as §1, with “MO” for “MΩ”, “analysis. […]” for “analysis.”

human Nav1.8/b3 = biological target: T2, human Nav1.8/b3 (Homo sapiens, UniProt Q9Y5Y9); assay: Compound Profiling Human NaV1.8/β3 Cell Line—SyncroPatch384PE Assay (automated patch clamp, stably transfected CHO cells); type: cell-based; details: Nav1.8/b3 CHO cells, third set of compounds
T2 construct: expressed in transfected cells; host or cells: CHO
T2 sequence (Q9Y5Y9 whole entry): as the sequence (Q9Y5Y9 whole entry) above
T2 sequence (Q9NY72 23-215 partner): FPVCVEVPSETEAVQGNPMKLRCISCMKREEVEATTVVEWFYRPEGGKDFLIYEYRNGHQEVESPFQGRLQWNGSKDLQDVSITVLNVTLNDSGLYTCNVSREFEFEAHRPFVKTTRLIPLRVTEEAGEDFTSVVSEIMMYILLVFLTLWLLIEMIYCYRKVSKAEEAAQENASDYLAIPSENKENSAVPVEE

[1] = P1, resting state block, Nav1.8/β1 HEK293 cells, holding potential −120 mV, third set of compounds, read-out: P1 (IC50, resting state block)
[2] = P1 (IC50, resting state block), P1 measurement, resting state block, holding potential −120 mV
[3] = P2 (IC50, inactivated state block), P2 measurement, inactivated state block, inactivation step −35 mV 10 sec

| IC50 (human Nav1.8/β1) [µM] | SMILES | other results |
| --- | --- | --- |
| 0.005 to 0.05 | CNCC[S@](=N)(=O)c1cccc(NC(=O)c2c(Oc3ccc(F)nc3C)ncc(C(F)(F)F)c2C)c1 [Example 65C] | – |
| 0.05 to 0.1 | Cc1nc(F)ccc1Oc1ncc(C(F)(F)F)c(C)c1C(=O)Nc1cccc([S@@](=N)(=O)CCO)c1 [Example 66C] | – |
| 0.005 to 0.05 | Cc1nc(F)ccc1Oc1ncc(C(F)(F)F)c(C)c1C(=O)Nc1cccc([S@](=N)(=O)CCO)c1 [Example 67C] | – |
| 0.1 to 0.2 | Cc1nc(F)ccc1Oc1ncc(C(F)(F)F)c(C)c1C(=O)Nc1cccc([S@@](=N)(=O)CCCO)c1 [Example 68C] | – |
| 0.1 to 0.2 | Cc1nc(F)ccc1Oc1ncc(C(F)(F)F)c(C)c1C(=O)Nc1cccc([S@](=N)(=O)CCCO)c1 [Example 69C] | – |
| 0.005 to 0.05 | CNCCCS(=O)(=O)c1cccc(NC(=O)c2c(Oc3ccc(F)nc3C)ncc(C(F)(F)F)c2C)c1 [Example 71C] | – |
| 0.005 to 0.05 | CNCCCS(=N)(=O)c1cccc(NC(=O)c2c(Oc3ccc(F)nc3C)ncc(C(F)(F)F)c2C)c1 (centres unmarked) [Example 74C] | – |
| 0.005 to 0.05 | Cc1nc(F)ccc1Oc1ncc(C(F)(F)F)c(C)c1C(=O)Nc1cccc([S@@](=N)(=O)CCN(C)C)c1 [Example 75C] | – |
| 0.005 to 0.05 | Cc1nc(F)ccc1Oc1ncc(C(F)(F)F)c(C)c1C(=O)Nc1cccc([S@](=N)(=O)CCN(C)C)c1 [Example 76C] | – |
| 0.005 to 0.05 | CNCCS(=N)(=O)c1cccc(NC(=O)c2c(Oc3ccc(F)nc3C)ncc(C(F)(F)F)c2C)c1 (centres unmarked) [Example 78C] | – |
| 0.05 to 0.1 | CC[S@@](=N)(=O)c1cccc(NC(=O)c2c(Oc3ccc(F)nc3C)ncc(C(F)(F)F)c2C)c1 [Example 82C] | – |

Continued, compound first:

| SMILES | IC50 (human Nav1.8/β1) [µM] | other results |
| --- | --- | --- |
| Cc1nc(F)ccc1Oc1ncc(C(F)(F)F)c(C)c1C(=O)Nc1cncc([S@](C)(=N)=O)c1 [Example 61C] | 0.1 to 0.2 | – |
| Cc1nc(F)ccc1Oc1ncc(C(F)(F)F)c(C)c1C(=O)Nc1cncc([S@@](C)(=N)=O)c1 [Example 62C] | > 0.2 | – |
| Cc1nc(F)ccc1Oc1ncc(C(F)(F)F)c(C)c1C(=O)Nc1cc(S(C)(=N)=O)ccn1 (centres unmarked) [Example 63C] | > 0.2 | – |
| CNCC[S@@](=N)(=O)c1cccc(NC(=O)c2c(Oc3ccc(F)nc3C)ncc(C(F)(F)F)c2C)c1 [Example 64C] | – | IC50 (human Nav1.8/β1; [1]): 0.005 to 0.05 µM |
| Cc1nc(F)ccc1Oc1ncc(C(F)(F)F)c(C)c1C(=O)Nc1cccc(S(=O)(=O)CCCO)c1 [Example 70C] | 0.1 to 0.2 | – |
| Cc1nc(F)ccc1Oc1ncc(C(F)(F)F)c(C)c1C(=O)Nc1cccc([S@@](=N)(=O)CCCN(C)C)c1 [Example 72C] | 0.005 to 0.05 | – |
| Cc1nc(F)ccc1Oc1ncc(C(F)(F)F)c(C)c1C(=O)Nc1cccc([S@](=N)(=O)CCCN(C)C)c1 [Example 73C] | 0.005 to 0.05 | – |
| Cc1nc(F)ccc1Oc1cc(C(F)(F)F)c(Cl)cc1C(=O)Nc1ccnc([S@@](C)(=N)=O)c1 [Example 77C] | – | IC50 (human Nav1.8/β1; [1]): > 0.2 µM |
| Cc1nc(F)ccc1Oc1ncc(C(F)(F)F)c(C)c1C(=O)Nc1cccc([S@]2(=O)=NCCC2)c1 [Example 79C] | 0.005 to 0.05 | – |
| Cc1nc(F)ccc1Oc1ncc(C(F)(F)F)c(C)c1C(=O)Nc1cccc([S@@]2(=O)=NCCC2)c1 [Example 80C] | 0.1 to 0.2 | – |
| Cc1nc(F)ccc1Oc1nc(C(F)(F)F)c(Cl)cc1C(=O)Nc1ccnc([S@](C)(=N)=O)c1 [Example 81C] | > 0.2 | – |
| Cc1c(C(F)(F)F)cnc(Oc2ccc(F)nc2CO)c1C(=O)Nc1cccc([S@@](C)(=N)=O)c1 [Example 83C] | > 0.2 | – |
| Cc1nc(F)ccc1Oc1ncc(C(F)(F)F)c(C)c1C(=O)N[C@H]1C[C@H](C(N)=O)C1 [Example 84C] | > 0.2 | – |
| Cc1nc(F)ccc1Oc1ncc(C(F)(F)F)c(C)c1C(=O)N[C@H]1C[C@@H](C(N)=O)C1 [Example 85C] | > 0.2 | – |
| Cc1nc(F)ccc1Oc1ncc(C2CCCC2)c(C)c1C(=O)Nc1ccnc([S@](C)(=N)=O)c1 [Example 86C] | 0.005 to 0.05 | IC50 (human Nav1.8/b3; [2]): 0.005 to 0.05 µM; IC50 (human Nav1.8/b3; [3]): 0.005 to 0.05 µM |
| Cc1nc(F)ccc1Oc1ncc(C2CCCC2)c(C)c1C(=O)Nc1cccc([S@](C)(=N)=O)c1 [Example 87C] | 0.005 to 0.05 | IC50 (human Nav1.8/b3; [2]): 0.005 to 0.05 µM; IC50 (human Nav1.8/b3; [3]): 0.005 to 0.05 µM |
| Cc1nc(F)ccc1Oc1ncc(C(F)(F)F)c(C)c1C(=O)Nc1ccc(F)c(S(C)(=O)=NCCN)c1 (centres unmarked) [Example 88C] | 0.005 to 0.05 | IC50 (human Nav1.8/b3; [2]): < 0.005 µM; IC50 (human Nav1.8/b3; [3]): < 0.005 µM |
| Cc1c(C(F)(F)F)cnc(Oc2ccc(F)nc2CO)c1C(=O)Nc1cccc([S@](C)(=N)=O)c1 [Example 89C] | > 0.2 | – |
